Data taken from publication PMC9311798, “A Novel Class of Potent Anti-Tyrosinase Compounds with Antioxidant Activity, 2-(Substituted phenyl)-5-(trifluoromethyl)benzo[d]thiazoles: In Vitro and In Silico Insights” (Antioxidants, 2022).
“Also recorded” adds a separate entry of the source.

Experiments:
mushroom tyrosinase = molecular target: T1, mushroom tyrosinase (Agaricus bisporus, UniProt C7FF04); experiment: Kinetic studies on the inhibition of mushroom tyrosinase (Lineweaver–Burk and Dixon plots); format: biochemical; details: for Inhibition type: Lineweaver–Burk plots; for Ki: Dixon plot; for Vmax: regardless of 1b concentration
T1 construct: purchased Sigma-Aldrich
Method: Lineweaver–Burk plots of compound 1b were acquired in the presence of L-tyrosine or L-DOPA as substrates. In brief, 10 µL aliquots of DMSO containing compound 1b (final concentrations: 0, 0.1, 0.2, or 0.4 µM in L-tyrosine, and 0, 1, 2, or 4 μM in L-DOPA) were added to the wells of a 96-well plate containing 170 µL of an aqueous solution (final concentrations: 1.0, 2.0, 4.0, 8.0, or 16.0 mM) of L-tyrosine or L-DOPA, sodium phosphate buffer (final concentration: 14.7 mM, pH 6.5), and 20 µL of mushroom tyrosinase (200 units/mL). Initial rates of dopachrome production were determined by measuring the increases in optical density at 475 nm (ΔOD475/min) using a microplate reader (VersaMax^TM, Molecular Devices, Sunnyvale, CA, USA). Maximal velocity (Vmax) was obtained from Lineweaver–Burk plots obtained using five different L-tyrosine or L-DOPA concentrations. Modes of tyrosinase inhibition were determined using plot convergence points.

[1] = DPPH radical scavenging activity assay; details: compound 1.0 mM, 30 min in the dark, 517 nm
Method: The DPPH (2,2-diphenyl-1-picrylhydrazyl) scavenging activities of synthesized compounds 1a–1p were investigated as previously described, with minor modifications. A dimethyl sulfoxide solution (20 µL) containing 10 mM of each compound was mixed with DPPH methanol solution (0.2 mM, 180 µL) in the wells of a 96-well plate, and placed in the dark for 30 min at room temperature. At 517 nm, optical densities were measured using a microplate reader (VersaMax^TM, Molecular Devices, Sunnyvale, CA, USA). The DPPH radical scavenging ability of the 2-arylbenzothiazole derivatives was compared with that of L-ascorbic acid, the positive control. All experiments were performed independently in triplicate.

[2] = molecular target: T2, cellular tyrosinase in B16F10 cells (Mus musculus, UniProt P11344); experiment: Cellular tyrosinase activity (L-DOPA oxidation) in α-MSH/IBMX-stimulated cells; format: cell-based, murine
T2 construct: endogenous in cells; host or cells: B16F10 murine melanoma cells, stimulated with alpha-MSH and IBMX
T2 sequence (P11344 19-533): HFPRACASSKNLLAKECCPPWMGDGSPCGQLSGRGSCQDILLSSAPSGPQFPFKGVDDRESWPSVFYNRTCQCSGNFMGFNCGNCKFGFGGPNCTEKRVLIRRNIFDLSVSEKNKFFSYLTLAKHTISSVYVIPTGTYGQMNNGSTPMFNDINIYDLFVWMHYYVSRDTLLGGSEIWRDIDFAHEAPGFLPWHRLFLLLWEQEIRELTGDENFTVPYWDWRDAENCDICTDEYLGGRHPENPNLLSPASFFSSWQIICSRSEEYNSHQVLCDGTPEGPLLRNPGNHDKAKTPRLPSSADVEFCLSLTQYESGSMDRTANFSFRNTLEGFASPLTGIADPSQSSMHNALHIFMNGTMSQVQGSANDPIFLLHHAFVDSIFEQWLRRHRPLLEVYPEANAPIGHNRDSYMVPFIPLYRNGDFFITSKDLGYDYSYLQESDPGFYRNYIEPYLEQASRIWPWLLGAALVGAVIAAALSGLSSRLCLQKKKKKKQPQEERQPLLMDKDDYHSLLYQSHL
Method: Cellular tyrosinase activity was assessed by measuring the oxidation rate of L-DOPA as previously described, with minor modifications. In brief, B16F10 cells were seeded in a 6-well plate at 1 × 10^5 cells/well, and allowed to adhere to well bottoms for 24 h, as described in Section 2.3.5. […]. Cells were then rinsed twice with PBS, exposed to 100 µL of lysis buffer solution (90 µL of 50 mM phosphate buffer (pH 6.5), 5 µL of 2 mM PMSF, and 5 µL of 20% Triton X-100), and lysed at −80 °C for 30 min. After defrosting, cell lysates were transferred to microcentrifuge tubes and centrifuged at 12,000 rpm for 30 min at 4°C, and supernatants (80 µL) were mixed with 20 µL of L-DOPA (2 mg/mL) in a 96-well plate, and incubated for 10 min at 37 °C. Absorbances were measured at 475 nm using a microplate reader (VersaMax^TM, Molecular Devices, Sunnyvale, CA, USA).

[3] = system: B16F10 murine melanoma cells; experiment: B16F10 cell viability assay (EZ-Cytox); format: cell-based; details: concentrations ≤20 μM, 48 h
Method: B16F10 murine melanoma cells were obtained from the American Type Culture Collection (ATCC, Manassas, VA, USA). Phosphate buffer solution (PBS), Dulbecco’s modified Eagle’s medium (DMEM), streptomycin, penicillin, trypsin, and fetal bovine serum (FBS) were purchased from Gibco/Thermo Fisher Scientific (Carlsbad, CA, USA). B16F10 cells were cultured in a DMEM solution comprising 10% heat-inactivated FBS, penicillin (100 IU/mL), and streptomycin (100 µg/mL), at 37 °C in a humidified 5% CO2 atmosphere. Experiments for anti-melanogenesis activity, cell viability, and anti-tyrosinase activity were assayed on these cells in 96- or 6-well culture plates.
Cell viability assays for B16F10 were performed using the EZ-Cytox assay (EZ-3000, DoGenBio, Seoul, Korea). In brief, B16F10 cells were seeded in a 96-well plate at a density of 1 × 10^4 cells/well, and cultured at 37 °C for 24 h in a humidified 5% CO2 atmosphere. The next day, B16F10 cells were exposed to six concentrations of 1a or 1b (0, 1, 2, 5, 10, or 20 μM), and incubated under the same conditions for 48 h. Then, the EZ-Cytox solution (10 μL) was added to each well, and the cells mixed with the EZ-Cytox solution were further incubated for 2 h. At 450 nm, optical densities were measured using a microplate reader (VersaMax^TM, Molecular Devices, Sunnyvale, CA, USA).

T1 sequence (C7FF04 1-392): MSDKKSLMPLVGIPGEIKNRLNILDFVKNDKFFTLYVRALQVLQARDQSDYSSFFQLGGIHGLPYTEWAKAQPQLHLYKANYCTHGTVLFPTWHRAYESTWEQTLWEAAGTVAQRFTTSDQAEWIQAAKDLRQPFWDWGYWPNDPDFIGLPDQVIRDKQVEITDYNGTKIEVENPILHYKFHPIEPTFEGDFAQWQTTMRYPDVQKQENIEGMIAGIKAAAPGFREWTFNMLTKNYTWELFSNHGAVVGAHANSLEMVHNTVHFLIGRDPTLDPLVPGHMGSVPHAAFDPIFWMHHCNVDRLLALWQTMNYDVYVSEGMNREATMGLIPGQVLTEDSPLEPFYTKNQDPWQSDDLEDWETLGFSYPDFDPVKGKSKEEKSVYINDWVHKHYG

## Oc1ccc(-c2nc3cc(C(F)(F)F)ccc3s2)c(O)c1 [Compound 1b, 4-(5-(Trifluoromethyl)benzo[d]thiazol-2-yl)benzene-1,3-diol]
Mushroom tyrosinase; L-DOPA as substrate
  Inhibition type: competitive inhibitor; also recorded: L-DOPA (Inhibition Type ^a: Competitive)
Mushroom tyrosinase; L-DOPA
  Ki: 2.45 µM
  Vmax: 0.00497 mM/min
Mushroom tyrosinase; L-tyrosine as substrate
  Inhibition type: competitive inhibitor; also recorded: L-Tyrosine (Inhibition Type ^a: Competitive)
Mushroom tyrosinase; L-tyrosine
  Ki: 0.0376 µM
  Vmax: 0.0101 mM/min
[1]
  DPPH radical scavenging activity: moderate DPPH radical scavenging efficacy
[2]; 10 µM, compared with kojic acid 20 µM
  cellular tyrosinase activity: reduced tyrosinase activity to that achieved by 20 µM kojic acid
[2]; 20 µM
  cellular tyrosinase activity: reduced tyrosinase activity to the untreated control level
[2]; 5, 10, 20 µM, IBMX + α-MSH, 48 h
  effect on cellular tyrosinase activity: significantly and concentration-dependently suppressed
[3]
  cytotoxic effect on B16F10 cell viability: Neither compound exhibited a significant cytotoxic effect
